Source: patent publication US8614327B2 (Vertex Pharmaceuticals Incorporated, priority 2004, dated 2013)

Target: T1, ΔF508-CFTR (Homo sapiens, UniProt P13569, DEL508-508)
T1 construct: expressed in transfected cells
Assay: Membrane potential optical (FRET/VIPR) assay, identification of potentiator compounds
Type: cell-based
Conditions: Table 3, assay not given; for % Activity: relative efficacy
From the text: I) Membrane Potential Optical Methods for Assaying ΔF508-CFTR Modulation Properties of Compounds The optical membrane potential assay utilized voltage-sensitive FRET sensors described by Gonzalez and Tsien (See, Gonzalez, J. E. and R. Y. Tsien (1995) “Voltage sensing by fluorescence resonance energy transfer in single cells” Biophys J 69(4): 1272-80, and Gonzalez, J. E. and R. Y. Tsien (1997) “Improved indicators of cell membrane potential that use fluorescence resonance energy transfer” Chem Biol 4(4): 269-77) in combination with instrumentation for measuring fluorescence changes such as the Voltage/Ion Probe Reader (VIPR) (See, […]. Oades, et al. (1999) “Cell-based assays and instrumentation for screening ion-channel targets” Drug Discov Today 4(9): 431-439). These voltage sensitive assays are based on the change in fluorescence resonant energy transfer (FRET) between the membrane-soluble, voltage-sensitive dye, DiSBAC2(3), and a fluorescent phospholipid, CC2-DMPE, which is attached to the outer leaflet of the plasma membrane and acts as a FRET donor. Changes in membrane potential (Vm) cause the negatively charged DiSBAC2(3) to redistribute across the plasma membrane and the amount of energy transfer from CC2-DMPE changes accordingly. The changes in fluorescence emission were monitored using VIPR which is an integrated liquid handler and fluorescent detector designed to conduct cell-based screens in 96- or 384-well microtiter plates. To identify potentiators of ΔF508-CFTR, a double-addition HTS assay format was developed. During the first addition, a Cl^--free medium with or without test compound was added to each well. […] (in mM) NaCl 160, KCl 4.5, CaCl2 2, MgCl2 1, HEPES 10, pH 7.4 with NaOH. • Chloride-free bath solution: Chloride salts in Bath Solution #1 are substituted with gluconate salts. • CC2-DMPE: Prepared as a 10 mM stock solution in DMSO and stored at -20° C. • DiSBAC2(3): Prepared as a 10 mM stock in DMSO and stored at -20° C. NIH3T3 mouse fibroblasts stably expressing ΔF508-CFTR are used for optical measurements of membrane potential. […] For all optical assays, the cells were seeded at 30,000/well in 384-well matrigel-coated plates and cultured for 2 hrs at 37° C. before culturing at 27° C. for 24 hrs. for the potentiator assay.

T1 sequence (P13569 with tags, fused parts or gaps DEL508-508): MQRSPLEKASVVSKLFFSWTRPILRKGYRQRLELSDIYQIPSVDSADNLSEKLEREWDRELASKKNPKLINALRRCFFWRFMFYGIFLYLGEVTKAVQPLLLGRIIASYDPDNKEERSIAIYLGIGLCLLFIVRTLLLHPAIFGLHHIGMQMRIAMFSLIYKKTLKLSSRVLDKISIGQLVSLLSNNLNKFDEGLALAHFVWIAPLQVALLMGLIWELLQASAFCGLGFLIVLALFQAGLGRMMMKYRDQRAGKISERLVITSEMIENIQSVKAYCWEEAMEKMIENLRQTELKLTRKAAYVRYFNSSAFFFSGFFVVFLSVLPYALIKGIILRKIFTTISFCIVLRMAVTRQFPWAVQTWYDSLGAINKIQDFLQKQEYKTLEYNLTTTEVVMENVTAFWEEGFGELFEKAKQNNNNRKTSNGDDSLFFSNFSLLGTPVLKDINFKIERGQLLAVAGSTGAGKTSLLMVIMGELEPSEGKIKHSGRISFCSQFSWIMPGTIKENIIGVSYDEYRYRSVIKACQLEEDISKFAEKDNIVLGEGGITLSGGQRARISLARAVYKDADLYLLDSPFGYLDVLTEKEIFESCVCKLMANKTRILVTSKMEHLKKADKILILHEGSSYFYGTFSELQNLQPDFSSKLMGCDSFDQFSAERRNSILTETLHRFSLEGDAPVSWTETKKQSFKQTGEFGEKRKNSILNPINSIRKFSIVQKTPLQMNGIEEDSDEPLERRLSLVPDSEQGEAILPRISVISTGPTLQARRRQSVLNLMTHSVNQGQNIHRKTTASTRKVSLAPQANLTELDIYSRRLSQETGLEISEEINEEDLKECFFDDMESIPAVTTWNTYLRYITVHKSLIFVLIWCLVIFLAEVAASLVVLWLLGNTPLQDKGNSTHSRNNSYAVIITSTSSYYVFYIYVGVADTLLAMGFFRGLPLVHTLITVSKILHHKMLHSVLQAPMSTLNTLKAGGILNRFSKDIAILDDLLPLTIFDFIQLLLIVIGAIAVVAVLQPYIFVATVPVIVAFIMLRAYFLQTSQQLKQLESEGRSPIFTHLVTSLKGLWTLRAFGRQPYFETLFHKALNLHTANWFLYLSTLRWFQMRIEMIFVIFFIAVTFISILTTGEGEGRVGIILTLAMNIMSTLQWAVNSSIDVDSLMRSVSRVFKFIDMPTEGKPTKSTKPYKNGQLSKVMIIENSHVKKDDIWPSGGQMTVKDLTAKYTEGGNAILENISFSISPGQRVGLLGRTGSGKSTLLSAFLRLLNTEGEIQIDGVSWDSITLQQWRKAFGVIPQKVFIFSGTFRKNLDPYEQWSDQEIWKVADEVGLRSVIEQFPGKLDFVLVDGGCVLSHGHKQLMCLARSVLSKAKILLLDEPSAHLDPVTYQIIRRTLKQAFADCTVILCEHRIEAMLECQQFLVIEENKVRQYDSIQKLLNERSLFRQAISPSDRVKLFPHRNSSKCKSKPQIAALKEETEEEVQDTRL

SMILES	EC50 [µM]	% Activity
CC(C)c1cc(C(F)(F)F)c(NC(=O)c2c[nH]c3ccccc3c2=O)cc1O [Compound 497, N-[5-hydroxy-4-isopropyl-2-(trifluoromethyl)phenyl]-4-oxo-1H-quinoline-3-carboxamide]	< 10	+++ (>100%)
O=C(Nc1ccc(Oc2cccnc2)cc1)c1c[nH]c2ccccc2c1=O [Compound 614, 4-oxo-N-[4-(3-pyridyloxy)phenyl]-1H-quinoline-3-carboxamide]	< 10	++ (between 25% to 100%)
Cc1cc2ccc(NC(=O)c3c[nH]c4ccccc4c3=O)cc2[nH]1 [Compound 104, N-(2-methyl-1H-indol-6-yl)-4-oxo-1H-quinoline-3-carboxamide]	< 10	++ (between 25% to 100%)
CC(C)(C)c1ccc(O)cc1NC(=O)c1c[nH]c2cccc(O)c2c1=O [Compound 609, 5-hydroxy-N-(5-hydroxy-2-tert-butyl-phenyl)-4-oxo-1H-quinoline-3-carboxamide]	< 10	++ (between 25% to 100%)
O=C(Nc1cccc2ncccc12)c1c[nH]c2ccccc2c1=O [Compound 191, 4-oxo-N-(5-quinolyl)-1H-quinoline-3-carboxamide]	25 to 60	+ (<25%)
COc1cccc2[nH]cc(C(=O)Nc3ccc4cc[nH]c4c3)c(=O)c12 [Compound 479, N-(1H-indol-6-yl)-5-methoxy-4-oxo-1H-quinoline-3-carboxamide]	< 10	++ (between 25% to 100%)
CC(C)(C)c1cc(C(C)(C)C)c(C(F)F)cc1NC(=O)c1c[nH]c2ccccc2c1=O [Compound 438, N-[5-(difluoromethyl)-2,4-ditert-butyl-phenyl]-4-oxo-1H-quinoline-3-carboxamide]	< 10	++ (between 25% to 100%)
CCc1cc(C(C)(C)C)c(O)cc1NC(=O)c1c[nH]c2ccc(F)cc2c1=O [Compound 649, N-(2-ethyl-5-hydroxy-4-tert-butyl-phenyl)-6-fluoro-4-oxo-1H-quinoline-3-carboxamide]	< 10	++ (between 25% to 100%)

The remaining lines, values ahead:

EC50 [µM]	% Activity	SMILES
< 10	++ (between 25% to 100%)	O=C(Nc1cc(Cl)ccc1F)c1c[nH]c2ccccc2c1=O [Compound 48, N-(5-chloro-2-fluoro-phenyl)-4-oxo-1H-quinoline-3-carboxamide]
< 10	++ (between 25% to 100%)	O=C(Nc1cc(C(F)(F)F)ccc1C(F)(F)F)c1c[nH]c2ccccc2c1=O [Compound 630, N-[2,5-bis(trifluoromethyl)phenyl]-4-oxo-1H-quinoline-3-carboxamide]
10 to 25	++ (between 25% to 100%)	O=C(Nc1cc(Cl)cc(NS(=O)(=O)CCN2CCOCC2)c1)c1c[nH]c2ccccc2c1=O [Compound 46, N-[3-chloro-5-(2-morpholinoethylsulfonylamino)phenyl]-4-oxo-1H-quinoline-3-carboxamide]
< 10	++ (between 25% to 100%)	COc1cc(NC(=O)c2c[nH]c3ccccc3c2=O)ccc1C(C)(C)C [Compound 2, N-(3-methoxy-4-tert-butyl-phenyl)-4-oxo-1H-quinoline-3-carboxamide]
< 10	++ (between 25% to 100%)	CC1(C)CNc2cc(NC(=O)c3c[nH]c4ccccc4c3=O)ccc21 [Compound 386, N-(3,3-dimethylindolin-6-yl)-4-oxo-1H-quinoline-3-carboxamide]
< 10	+++ (>100%)	O=C(Nc1ccc2c(C(F)(F)F)c[nH]c2c1)c1c[nH]c2ccccc2c1=O [Compound 545, 4-oxo-N-[3-(trifluoromethyl)-1H-indol-6-yl]-1H-quinoline-3-carboxamide]
< 10	+++ (>100%)	CC(C)(C)c1cc2cc[nH]c2cc1NC(=O)c1c[nH]c2ccc(F)cc2c1=O [Compound 124, 6-fluoro-4-oxo-N-(5-tert-butyl-1H-indol-6-yl)-1H-quinoline-3-carboxamide]
